Experimental data from paper PMC10644263 (Biochemistry, 2020).
“And” between values parts separate entries of the source, which are not always exact repeats. Equal entries are not always repeated.

How the values were obtained:
[1] = biological target: T1, HpMTAN (Helicobacter pylori, UniProt Q9ZMY2); assay: Inhibition of HpMTAN; format: biochemical; details: 37 °C
T1 sequence (Q9ZMY2 1-230): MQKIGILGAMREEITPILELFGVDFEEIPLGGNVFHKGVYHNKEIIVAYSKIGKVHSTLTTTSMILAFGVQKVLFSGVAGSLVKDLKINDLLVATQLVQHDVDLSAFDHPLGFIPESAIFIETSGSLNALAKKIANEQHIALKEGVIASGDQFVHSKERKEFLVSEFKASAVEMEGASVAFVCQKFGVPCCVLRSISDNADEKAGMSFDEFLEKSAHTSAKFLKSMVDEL

[2] = biological target: T2, SaMTAN (Staphylococcus aureus, UniProt Q5HFG2); assay: Inhibition of SaMTAN; format: biochemical; details: 37 °C, compared with MTDIA
T2 sequence (Q5HFG2 1-228): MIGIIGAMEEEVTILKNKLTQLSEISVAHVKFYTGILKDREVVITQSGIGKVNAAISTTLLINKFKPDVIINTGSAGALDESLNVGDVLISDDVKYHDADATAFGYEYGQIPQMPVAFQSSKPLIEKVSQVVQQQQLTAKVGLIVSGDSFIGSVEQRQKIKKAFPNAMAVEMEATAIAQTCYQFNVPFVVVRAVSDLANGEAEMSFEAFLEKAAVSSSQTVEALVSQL

Structure (SMILES)	improvement of Ki/affinity relative to MTDIA for HpMTAN ([1]; compared with MTDIA) [fold]	improvement of Ki relative to MTDIA for SaMTAN [2] [fold]	Ki ([1]; read-out: Ki (dissociation constant) for HpMTAN)
Nc1ncnc2c(CN3C[C@H](CSCCOCCO)[C@@H](O)C3)c[nH]c12 [Compound 2]	14	81	
CSC[C@H]1CN(Cc2c[nH]c3c(N)ncnc23)C[C@@H]1O [MTDIA, Methylthio-DADMe-Immucillin-A]			1 nM and 1.25 nM
